A short description of series [1]: Differential scanning calorimetry (melt enthalpy, undercooling, percent solids index). The class given is physicochemical. The conditions noted are these: DSC, heating from solid, 5° C./min. The text has this: It is known in the art that alkoxylation has the potential to decrease the pour point of an ester. However, the current disclosure has observed a surprising decrease in the melting enthalpy and a marked reduction in the degree of undercooling. The degree of undercooling for a base oil indicates the increase in temperature required to fully melt an oil after crystallization has started. The degree of undercooling for the purpose of this disclosure is described as the difference between the temperature at which a material is fully melted on heating and the temperature at which the material begins to crystallize on cooling [Tmelt−Tonset=Undercool] as determined by differential scanning calorimetry (DSC) with a heating and cooling rate of 5° C./min. “Undercooling” and “degree of undercooling” can be used synonymously.
Oils with a lower undercooling require a smaller increase in temperature after crystallization to melt the oil and erase the oil “memory.” Shelby and Miller teach the concept of oil “memory” as a result of gels or crystals not fully dissociating even when above the melt point, so that on a second cooling cycle, gelation or crystal growth occurs much more quickly and at higher temperatures. If two oils have the same crystallization onset temperature, the oil with the lower undercooling will fully melt at a lower temperature and erase the oil “memory”. […] The effect of this is that glycerol esters and polyol esters must be heated substantially above the onset of crystallization in order to melt the oil before use. […] At 5° C. above the onset of crystallization temperature, 100% of Ex. 92 (glycerol ester) is solid; 31% of Ex 93 (PG3 ester) is solid; 18% of Ex. 94 (PG10 ester) is solid; and 81% of Ex 90 (TMP ester) is solid.
Examples 90, 92-94: Reductions in the enthalpy of melting are observed for propoxylated glycerol esters and TMP esters relative to the glycerol ester, see FIG. 19, Table 5, FIG. 20, Table 6 and FIG. 21, Table 7. […] DSC analysis was conducted within the temperature range −80° C. to 40° C. with cyclic cooling and heating rates of 5° C./min. The DSC melt thermograms for each material were integrated as a function of temperature and normalized to the overall melt enthalpy to generate a percent solids index that is the basis for the data in the Solids @ Onset+T columns. The data under Solids @ Onset+5 and +10° C. are indicative of the percent of solids in a base oil when heating from a fully solid or crystalline state. […] Both glycerol and TMP esters show higher degrees of undercooling and higher melt enthalpies compared to analogous propoxylated glycerol esters, see FIG. 20, Table 6.
(In general: Differential scanning calorimetry records heat flow against a reference as temperature is scanned.)

For series [2] the following is noted: literature value, cited from earlier work.

With `CCCCCCCCCCCC(=O)OCC(COC(=O)CCCCCCCCCCC)OC(=O)CCCCCCCCCCC` [Example 92], the “percent solid at 5° C. above the onset of crystallization temperature” value in series [1] came to 100%. Also, the “percent solid at 10° C. above the crystallization onset temperature” value is given as “significant amounts of crystalline solids” in series [1] and “not melted at all” in series [1] (listed as Ex. 92).

Consider `CCCCCCCC/C=C\CCCCCCCC(=O)OCC(CC)(COC(=O)CCCCCCC/C=C\CCCCCCCC)COC(=O)CCCCCCC/C=C\CCCCCCCC` [TMP trioleates], for which the “Oxidative Onset Temperature (OOT) after formulation” value in series [2] (formulated) is “up to 206 °C”. The “Oxidative Onset Temperature (OOT)” value in series [2] (unformulated) is 156 °C.

Consider `CCCCCCCCCCCC(=O)OCC(CC)(COC(=O)CCCCCCCCCCC)COC(=O)CCCCCCCCCCC` [Example 90], for which, in series [1], the “percent solid at 5° C. above the onset of crystallization temperature” value stood at 81% and the “percent solid at 10° C. above the crystallization onset temperature” value is given as “significant amounts of crystalline solids”. The “percent solid at 10° C. above the crystallization onset temperature” value in series [1] (listed as Ex 90) is recorded as 46%.

(Values after patent US11680218B2, “Biodegradable lubricant with tailored hydrolytic stability and improved thermal stability through alkoxylation of glycerol” (Tetramer Technologies, LLC, priority 2018, dated 2023).)
